# Residues, ends and D or L forms follow the SMILES beside them.
# Columns and labels:
# S. ent. ATCC 13076 = assay: Kirby–Bauer disk diffusion; assay type: cell-based, Salmonella enterica; conditions: 20 h; for diameter of growth inhibition, S. ent. ATCC 13076: 100 μg peptide per 6 mm disk, Mueller–Hinton pH 7.2–7.4, 37°C, — read as no inhibition
# Method: (§1) The antibacterial activity was tested on Gram‐positive ( Staphylococcus aureus ATCC 25923, Streptococcus pyogenes ATCC 19615, Listeria monocytogenes ATCC 7644, Bacillus subtilis ATCC […], Enterococcus faecalis ATCC 29212, E. faecalis ATCC 51299, and some clinical isolates, Streptococcus mitis , Streptococcus oralis , S. pyogenes Group A and Streptococcus Group G), Gram‐negative ( Klebsiella aerogenes ATCC 13048, Salmonella enterica ATCC […], Escherichia coli ATCC 25922, Pseudomonas aeruginosa ATCC 27853, Acinetobacter baumannii ATCC […], Klebsiella pneumoniae ATCC 13883, Proteu mirabilis ATCC 14153) bacterial strains, and Saccharomyces cerevisiae ATCC 9763, according to the standardized disk diffusion Kirby–Bauer method.
# (§2) Peptide solutions in DMSO were adsorbed into paper disks (Macherey‐Nagel 615, Germany) of 6 mm in diameter. Every disk was loaded with 100 μg of peptide. The bacteria inoculum was of 0.5 Mc Farland, corresponding to 1–2 x 10^8 CFU/mL. The tests were carried out on Mueller–Hinton culture medium at pH 7.2–7.4 with incubation at 37°C for 20 h. Peptide activity was determined by measuring the diameters (in millimeters) of bacteria/fungi growth inhibition around the paper disks.
# [1] = no CD signal in phosphate buffer (PB) pH 7.4, peptide 1 mM, room temperature
# Method: Electronic CD curves in the amide region (190–260 nm) were obtained on a Jasco (Tokyo, Japan) model J‐1500 spectropolarimeter. A fused quartz cell of 0.02 cm pathlength (Hellma, Mühlheim, Germany) was used to record spectra in phosphate buffer pH 7.4 (PB), and aqueous sodium dodecyl sulfate (SDS, 30 mM). Spectra were collected at room temperature with peptide concentrations of 1 mM. After baseline subtraction, the values recorded were transformed into [θ]T, the total molar ellipticity (deg × cm^2 × dmol^−1) by means of the JASCO software Spectra Manager.
# [2] = Peptide stability in serum; assay type: in vitro ADME; conditions: human serum in HEPES 25 mM pH 7.6, 37°C, over 24 h, HPLC or HPLC–MS, triplicate
# Method: The peptides were dissolved in DMSO at a concentration of 5 mg/mL. In Eppendorf tubes, 1 mL of HEPES buffer (25 mM, pH = 7.6) was temperature equilibrated at 37°C before adding 250 μL of human serum and 20 μL of peptide solution. The reaction was monitored for 24 h. At fixed intervals, 100 μL of the solution was withdrawn and added with 200 μL of absolute ethanol. The sample was kept on ice for 15 min and then centrifuged at 16,000 g for 5 min. Finally, the supernatant solution was analyzed by HPLC or HPLC–MS..
# A peptide of similar length, not resistant to degradation in serum, was used as a positive test. The peptide sequence is as follows: Tyr‐Ser‐Ser‐Phe‐Leu.
# To verify peptide stability in buffer solution, samples containing peptide solutions, buffer, and ethanol were also analyzed. All of the degradation experiments were carried out in triplicate.
# [3] = tested on: various bacterial strains, both Gram‐positive and Gram‐negative, as well as S. cerevisiae; assay: Kirby–Bauer disk diffusion, whole panel; assay type: cell-based; conditions: 100 μg peptide per disk, 37°C, 20 h, all strains tested
# Method: as §1, §2
Compound,"diameter of growth inhibition, S. ent. ATCC 13076 (S. ent. ATCC 13076)","solubility in water, in words [1]","serum stability, ranking in words [2]",other results
"CCCCCCCCCCCCCCCC(=O)N[C@@H](Cc1c[nH]cn1)C(=O)N[C@@H](C)C(=O)N[C@H](C)C(=O)N[C@@H](Cc1c[nH]cn1)C(N)=O [P0, Palm‐His‐Ala‐D‐Ala‐His‐NH2] (HELM PEPTIDE1{[CCCCCCCCCCCCCCCC(=O)[*:2]].H.A.[dA].H.[am]}$$$$V2.0)",10 mm,poor solubility in water,–,"activity against Salmonella enterica ATCC 13076, in words (S. ent. ATCC 13076; 100 μg peptide per disk, 37°C): selectively active"
"CCCCCCCCCCCCCCCC(=O)N[C@@H](Cn1ccnc1)C(=O)N[C@@H](C)C(=O)N[C@H](C)C(=O)N[C@@H](Cn1ccnc1)C(N)=O [P1, Palm‐L‐His*‐Ala‐D‐Ala‐L‐His*‐NH2]",–,poor solubility in water,–,–
"CCCCCCCCCCCCCCCC(=O)N[C@H](Cn1ccnc1)C(=O)N[C@@H](C)C(=O)N[C@H](C)C(=O)N[C@H](Cn1ccnc1)C(N)=O [P2, Palm‐D‐His*‐Ala‐D‐Ala‐D‐His*‐NH2]",–,poor solubility in water,best candidates in terms of serum stability,–
"CC(=O)N[C@@H](Cc1c[nH]cn1)C(=O)N[C@@H](C)C(=O)N[C@H](C)C(=O)N[C@@H](Cc1c[nH]cn1)C(=O)NCCCCCCCCCCC(N)=O [P3, Ac‐His‐Ala‐D‐Ala‐His‐Aun‐NH2] (HELM PEPTIDE1{[ac].H.A.[dA].H.[O=C(CCCCCCCCCCN[*:1])[*:2]].[am]}$$$$V2.0)",–,–,–,"antimicrobial activity over the panel, in words [3]: no activity"
"CCCCCCCCCCCC(=O)N[C@@H](Cc1c[nH]cn1)C(=O)N[C@@H](C)C(=O)N[C@H](C)C(=O)N[C@@H](Cc1c[nH]cn1)C(N)=O [P6, Laur‐His‐Ala‐D‐Ala‐His‐NH2] (HELM PEPTIDE1{[CCCCCCCCCCCC(=O)[*:2]].H.A.[dA].H.[am]}$$$$V2.0)",9 mm,–,–,–
"CCCCCCCCCCCC(=O)N[C@H](Cn1ccnc1)C(=O)N[C@@H](C)C(=O)N[C@H](C)C(=O)N[C@H](Cn1ccnc1)C(N)=O [P8, Laur‐D‐His*‐Ala‐D‐Ala‐D‐His*‐NH2]",–,–,best candidates in terms of serum stability,–
